# Tests used:
# [1] = system: mast cell FcγRIII-mediated inflammation; experiment: Reverse passive Arthus (RPA) model, skin swelling; assay type: in vivo
# Experimental: As the levels of BTK-expressing cells in skin were too low to allow occupancy measurement, the duration of the PD effect in skin after single dose was assessed in the reverse passive Arthus (RPA) model of mast cell FcγRIII-mediated inflammation. In this model, the inhibition of skin swelling was maximal when compound (I) was dosed 2 hours prior to eliciting the Arthus reaction. The effect diminished gradually and reached baseline when the Arthus reaction was triggered 45 hours or later after compound (I) dosing.
# BTK = molecular target: T1, BTK (Homo sapiens, UniProt Q06187); experiment: BTK occupancy in human whole blood (free and total BTK ELISA, MSD); assay type: in vivo
# T1 construct: from tissue; host or cells: human whole blood (peripheral blood of dosed volunteers)
# Experimental: Pharmacodynamics (PD) was characterized by assessing target occupancy and distal pathway inhibition. Measurements of BTK occupancy in human whole blood (derived as ratio of free and total BTK), served as direct marker of therapeutic target engagement.
# Compound of formula (I) is an irreversible inhibitor of BTK, the extent and duration of BTK occupancy were determined.
# The relationship between dose and pharmacodynamics was characterized by measurements of BTK occupancy in human blood (derived as ratio of free and total BTK), a direct marker of therapeutic target engagement. BTK occupancy was determined for single ascending doses ranging 0.5 to 400 mg, for q.d. multiple ascending doses ranging from of 10 mg and 400 mg, and for b.i.d. multiple ascending doses of 100 mg and 200 mg.
# [2] = after single dose, peripheral blood
# T1 sequence (Q06187 whole entry): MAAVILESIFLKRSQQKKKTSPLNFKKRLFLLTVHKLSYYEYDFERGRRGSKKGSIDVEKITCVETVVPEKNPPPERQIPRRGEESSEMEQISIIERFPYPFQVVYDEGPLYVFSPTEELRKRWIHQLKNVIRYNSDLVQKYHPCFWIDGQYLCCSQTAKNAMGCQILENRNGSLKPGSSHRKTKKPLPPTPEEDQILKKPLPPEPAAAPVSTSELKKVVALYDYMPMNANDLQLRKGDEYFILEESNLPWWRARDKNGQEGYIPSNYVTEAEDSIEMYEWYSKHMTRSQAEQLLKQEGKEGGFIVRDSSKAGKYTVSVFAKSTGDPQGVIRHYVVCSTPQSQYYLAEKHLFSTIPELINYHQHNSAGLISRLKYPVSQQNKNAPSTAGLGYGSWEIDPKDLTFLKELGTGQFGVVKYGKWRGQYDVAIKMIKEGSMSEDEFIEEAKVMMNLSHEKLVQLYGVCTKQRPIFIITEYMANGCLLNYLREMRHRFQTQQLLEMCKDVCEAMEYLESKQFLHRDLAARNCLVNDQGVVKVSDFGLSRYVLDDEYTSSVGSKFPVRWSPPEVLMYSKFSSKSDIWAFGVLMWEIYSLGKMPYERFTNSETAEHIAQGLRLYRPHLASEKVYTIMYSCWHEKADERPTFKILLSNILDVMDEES
compound,measurement,setting,value
"C=CC(=O)N(C)CCOc1c(N)ncnc1-c1cc(F)cc(NC(=O)c2ccc(C3CC3)cc2F)c1C [Compound of Formula (I), N-(3-(6-Amino-5-(2-(N-methylacrylamido)ethoxy)pyrimidin-4-yl)-5-fluoro-2-methylphenyl)-4-cyclopropyl-2-fluorobenzamide]",time after dosing of Arthus trigger at which effect reached baseline,[1]; single dose,≥ 45 h
same,inhibition of skin swelling,[1]; single dose 2 hours prior to eliciting the Arthus reaction,maximal
same,BTK occupancy in blood,BTK; 10 mg q.d.,nearly complete
same,through BTK occupancy in blood,"BTK; 10 mg q.d., pre-dose at day 12",> 96%
same,median BTK turnover T1/2,BTK; [2],about 48 hours
same,time to refresh BTK protein pool to pre-dose levels,BTK; [2],about 10 days
same,duration of BTK occupancy in blood,BTK; in vivo,> 24 h
same,time of peak target occupancy post dose,BTK; peripheral blood,0.5 h
same,BTK occupancy at 24 h,BTK; single doses of 15 mg and above,above 80%
same,peak target (BTK) occupancy,"BTK; single doses of 15 mg and above, nearly all subjects",~100%
same,duration of sustained BTK occupancy,BTK; single doses of 30 mg and higher,> 24 h
same,BTK occupancy (near-complete),"BTK; single doses of 30 mg and higher, all subjects",> 90%
